Values after ≈ are worked out from the molar mass of the structure shown. Where a name gives a salt, the structure may show the parent alone. Values belong to the compound of their own block, whether it stands above or below them.
Columns and labels:
[1] = system: S. aureus Col (Meth^R) (lac^-); test: MIC by agar dilution, S. aureus Col (Meth^R) (lac^-); assay type: cell-based; conditions: Staphylococcus aureus; agar dilution; S. aureus Col (Meth^R) (lac^-); read-out: MIC
How it was run: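 Log-phase isolates were spot-inoculated at about 10^4 cfu onto Mueller-Hinton agar carrying duplicate two-fold compound levels, 128 μg/mL to ≤0.25 μg/mL, following NCCLS (1991). Plates were read after 16-20 h at 35°-36° C. The lowest growth-inhibiting concentration gave the MIC (μg/ml).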

[2] = system: methicillin-susceptible S. aureus strain ATCC 13709; test: murine model for lethal bacteremic peritonitis; assay type: in vivo, female Swiss-Webster mice; conditions: subcutaneous, 72 h
Procedure: Groups of 5 female Swiss-Webster mice (Simonsen, Gilroy, Calif.) each are challenged by the intraperitoneal (IP) route with tenfold increments of a bacterial inoculum. This permits calculation of the mean lethal dose (LD50) and the LD100. For preliminary evaluation of a new antibiotic, mice are challenged IP with an LD100 titer of bacteria. In two equal doses administered at the time of bacterial challenge and 2 hours later, groups of 10 mice each are treated subcutaneously with two-fold increments of the test drug and an antibiotic of known efficacy in mice and humans (i.e., positive control). Mice are observed for 72 h. Those alive at 72 h are considered long term survivors. The total drug dose in mg/kg that protects 50% of mice in a group from death is termed the mean protective dose (PD50). PD50 s are similarly determined for several pathogens. The quantitative endpoints for the new drug are then compared with those obtained with reference antibiotics.
Six ten-fold dilutions of inoculum suspended in 0.5 mL of sterilized 7% hog gastric mucin (Sigma) are injected IP in groups of 5 mice each. A control group of 5 mice receive mucin alone. Mice are observed for 72 h. Those alive at 72 h are considered long term survivors. The mean lethal dose (LD50) and 100% lethal dose (LD100) are determined by the probit test.
For antibiotic efficacy studies, mice are challenged IP with bacterial titers that will afford an LD100 for the test strain. In two equal doses administered at the time of bacterial challenge and 2 hours later, groups of 10 mice each are treated by the subcutaneous route (SC) with twofold increments of the test antibiotic; another group is treated similarly with a reference antibiotic of known efficacy in animals and man. Drug doses can range from 0.01 to 512 mg/kg. If the drug is poorly soluble, Tween 20 or propylene glycol will be employed to solubilize the drug. Animals are observed for 72 h. The 50% protective dose (PD50) is calculated in mg/kg by the probit method. The PD50 is the same as the 50% effective dose (ED50) and the 50% curative dose (CD50). Samples of blood from the hearts of all animals that die and from half the mice that survive are cultured on brain-heart infusion agar. Animals that received a protective dosage of the test drug will be alive at 72 h, although they may appear moderately ill to very ill during the observation period. […] Most of these mice will die within 6 to 48 h. Those alive at 72 h will be considered long term survivors.
(Compound numbers correspond to those in MIC tables; data
reported for challenge with methicillin-susceptible S. aureus

MIC [1]: 4 µg/mL (≈ 8.84 µM)
SMILES: N#Cc1ncccc1SC1=C(C(=O)O)N2C(=O)[C@@H](NC(=O)Cc3ccccc3)[C@H]2SC1 [Cmpd 102, (7R)-7-[(Phenylacetyl)amino]-3-(2-cyanopyridin-3-ylthio)-3-cephem-4-carboxylic acid]
Mortality ([2]; dose 0.3125 mg/kg): 10/10 | Mortality ([2]; dose 0.625 mg/kg): 8/10 | Mortality ([2]; dose 1.25 mg/kg): 7/10 | Mortality ([2]; dose 2.5 mg/kg): 5/10 | Mortality ([2]; dose 5 mg/kg): 0/10

SMILES: O=C(Cc1ccccc1)N[C@@H]1C(=O)N2C(C(=O)O)=C(Sc3cccnc3-n3cccn3)CS[C@H]12 [Cmpd 103, (7R)-7-[(Phenylacetyl)amino]-3-(2-(pyrazol-1-yl)pyridin-3-ylthio)-3-cephem-4-carboxylic acid]
MIC [1]: 2 µg/mL (≈ 4.05 µM) | Mortality ([2]; dose 0.625 mg/kg): 7/10 | Mortality ([2]; dose 1.25 mg/kg): 7/10 | Mortality ([2]; dose 2.5 mg/kg): 7/10 | Mortality ([2]; dose 5 mg/kg): 5/10 | Mortality ([2]; dose 10 mg/kg): 0/10

SMILES: CCC(CC)O/N=C(\C(=O)N[C@@H]1C(=O)N2C(C(=O)O)=C(Sc3ccnn3-c3ccccc3)CS[C@H]12)c1csc(N)n1 [Cmpd 104, (7R)-7-[(Z)-2-(aminothiazol-4-yl)-2-(3-pentyloxyimino)acetamido]-3-(1-N-phenylpyrazol-5-ylthio)-3-cephem-4-carboxylic acid]
MIC [1]: 2 µg/mL (≈ 3.26 µM) | Mortality ([2]; dose 0.625 mg/kg): 6/10 | Mortality ([2]; dose 1.25 mg/kg): 10/10 | Mortality ([2]; dose 2.5 mg/kg): 8/10 | Mortality ([2]; dose 5 mg/kg): 8/10 | Mortality ([2]; dose 10 mg/kg): 9/10

SMILES: CSCC(=O)N[C@@H]1C(=O)N2C(C(=O)O)=C(Sc3ccnn3-c3ccccc3)CS[C@H]12 [Cmpd 106, (7R)-7-[(methylthioacetyl)amino]-3-(1-N-phenylpyrazol-5-ylthio)-3-cephem-4-carboxylic acid]
MIC [1]: 1 µg/mL (≈ 2.16 µM) | Mortality ([2]; dose 0.1562 mg/kg): 9/10 | Mortality ([2]; dose 0.3125 mg/kg): 9/10 | Mortality ([2]; dose 0.625 mg/kg): 6/10 | Mortality ([2]; dose 1.25 mg/kg): 2/10 | Mortality ([2]; dose 2.5 mg/kg): 1/10

SMILES: O=C(CC1CC1)N[C@@H]1C(=O)N2C(C(=O)O)=C(Sc3ccnn3-c3ccccc3)CS[C@H]12 [Cmpd 107, (7R)-7-[(cyclopropylacetyl)amino]-3-(1-N-phenylpyrazol-5-ylthio)-3-cephem-4-carboxylic acid]
MIC [1]: 4 µg/mL (≈ 8.76 µM) | Mortality ([2]; dose 0.625 mg/kg): 8/10 | Mortality ([2]; dose 1.25 mg/kg): 6/10 | Mortality ([2]; dose 2.5 mg/kg): 5/10 | Mortality ([2]; dose 5 mg/kg): 0/10 | Mortality ([2]; dose 10 mg/kg): 0/10

MIC [1]: 4 µg/mL (≈ 6.69 µM)
SMILES: Nc1nc(/C(=N/OCC2CC2)C(=O)N[C@@H]2C(=O)N3C(C(=O)O)=C(Sc4ccnn4-c4ccccc4)CS[C@H]23)cs1 [Cmpd 108, (7R)-7-[(Z)-2-(2-aminothiazol-4-yl)-2-(cyclopropylmethyloxyimino)acetamido]-3-(1-N-phenylpyrazol-5-ylthio)-3-cephem-4-carboxylic acid]
Mortality ([2]; dose 0.625 mg/kg): 9/10 | Mortality ([2]; dose 1.25 mg/kg): 8/10 | Mortality ([2]; dose 2.5 mg/kg): 9/10 | Mortality ([2]; dose 5 mg/kg): 10/10 | Mortality ([2]; dose 10 mg/kg): 10/10

MIC [1]: 2 µg/mL (≈ 3.8 µM)
SMILES: O=C(CSc1ccncc1)N[C@@H]1C(=O)N2C(C(=O)O)=C(Sc3ccnn3-c3ccccc3)CS[C@H]12 [Cmpd 110, (7R)-7-[(4-pyridylthioacetyl)amino]-3-(1-N-phenylpyrazol-5-ylthio)-3-cephem-4-carboxylic acid]
Mortality ([2]; dose 0.625 mg/kg): 8/10 | Mortality ([2]; dose 1.25 mg/kg): 7/10 | Mortality ([2]; dose 2.5 mg/kg): 8/10 | Mortality ([2]; dose 5 mg/kg): 6/10 | Mortality ([2]; dose 10 mg/kg): 0/10

SMILES: O=C(O)C1=C(Sc2ccnn2-c2ccccc2)CS[C@@H]2[C@H](NC(=O)C3SCCS3)C(=O)N12 [Cmpd 115, (7R)-7-[(2-dithiolanylcarbonyl)amino]-3-(1-N-phenylpyrazol-5-ylthio)-3-cephem-4-carboxylic acid]
MIC [1]: 4 µg/mL (≈ 7.89 µM) | Mortality ([2]; dose 0.625 mg/kg): 8/10 | Mortality ([2]; dose 1.25 mg/kg): 9/10 | Mortality ([2]; dose 2.5 mg/kg): 7/10 | Mortality ([2]; dose 5 mg/kg): 4/10 | Mortality ([2]; dose 10 mg/kg): 0/10

MIC [1]: 4 µg/mL (≈ 7.32 µM)
SMILES: Cc1nnc(SCC(=O)N[C@@H]2C(=O)N3C(C(=O)O)=C(Sc4ccnn4-c4ccccc4)CS[C@H]23)s1 [Cmpd 118]
Mortality ([2]; dose 0.625 mg/kg): 8/10 | Mortality ([2]; dose 1.25 mg/kg): 6/10 | Mortality ([2]; dose 2.5 mg/kg): 8/10 | Mortality ([2]; dose 5 mg/kg): 4/10 | Mortality ([2]; dose 10 mg/kg): 2/10

SMILES: O=C(CSc1ccccc1)N[C@@H]1C(=O)N2C(C(=O)O)=C(Sc3ccnn3-c3ccccc3)CS[C@H]12 [Cmpd 119, (7R)-7-[(phenylthioacetyl)amino]-3-(1-N-phenylpyrazol-5-ylthio)-3-cephem-4-carboxylic acid]
MIC [1]: 2 µg/mL (≈ 3.81 µM) | Mortality ([2]; dose 0.3125 mg/kg): 10/10 | Mortality ([2]; dose 0.625 mg/kg): 9/10 | Mortality ([2]; dose 1.25 mg/kg): 10/10 | Mortality ([2]; dose 2.5 mg/kg): 7/10 | Mortality ([2]; dose 5 mg/kg): 8/10

SMILES: N#CCSCC(=O)N[C@@H]1C(=O)N2C(C(=O)O)=C(Sc3ccnn3-c3ccccc3)CS[C@H]12 [Cmpd 122, (7R)-7-[(cyanomethylthioacetyl)amino]-3-(1-N-phenylpyrazol-5-ylthio)-3-cephem-4-carboxylic acid]
MIC [1]: 4 µg/mL (≈ 8.2 µM) | Mortality ([2]; dose 0.625 mg/kg): 8/10 | Mortality ([2]; dose 1.25 mg/kg): 6/10 | Mortality ([2]; dose 2.5 mg/kg): 0/10 | Mortality ([2]; dose 5 mg/kg): 0/10 | Mortality ([2]; dose 10 mg/kg): 0/10

SMILES: CC(C)N=C(NC(C)C)SCC(=O)N[C@@H]1C(=O)N2C(C(=O)O)=C(Sc3ccccc3CSC(=N)N)CS[C@H]12 [Cmpd 125, (7R)-7-[((N,N'-diisopropylisothiouronium)acetyl)amino]-3-(2-isothiouroniummethylphenylthio)-3-cephem-4-carboxylate, trifluoroacetic acid salt]
MIC [1]: 4 µg/mL | Mortality ([2]; dose 0.625 mg/kg): 9/10 | Mortality ([2]; dose 1.25 mg/kg): 10/10 | Mortality ([2]; dose 2.5 mg/kg): 7/10 | Mortality ([2]; dose 5 mg/kg): 4/9 | Mortality ([2]; dose 10 mg/kg): 7/10

SMILES: CSCC(=O)N[C@@H]1C(=O)N2C(C(=O)O)=C(Sc3ccccc3CSC(=N)N)CS[C@H]12 [Cmpd 127, (7R)-7-[(methylthioacetyl)amino]-3-(2-isothiouroniummethylphenylthio)-3-cephem-4-carboxylate, inner salt]
MIC [1]: 4 µg/mL | Mortality ([2]; dose 0.3125 mg/kg): 6/10 | Mortality ([2]; dose 0.625 mg/kg): 5/10 | Mortality ([2]; dose 1.25 mg/kg): 4/10 | Mortality ([2]; dose 2.5 mg/kg): 2/10 | Mortality ([2]; dose 5 mg/kg): 1/10

SMILES: O=C(O)C1=C(Sc2ccnn2-c2ccccc2)CS[C@@H]2[C@H](NC(=O)/C(=N\O)c3ccccc3)C(=O)N12 [Cmpd 130, (7R)-7-[(Z)-2-(Phenyl)-2-(hydroxyimino)acetamido]-3-(1-N-(phenyl)pyrazol-5-ylthio)-3-cephem-4-carboxylic acid]
MIC [1]: 2 µg/mL (≈ 3.83 µM) | Mortality ([2]; dose 0.625 mg/kg): 10/10 | Mortality ([2]; dose 1.25 mg/kg): 7/10 | Mortality ([2]; dose 2.5 mg/kg): 9/10 | Mortality ([2]; dose 5 mg/kg): 6/10 | Mortality ([2]; dose 10 mg/kg): 6/10

Source: US5698547A, “Cephalosporin antibiotics” (Microcide Pharmaceuticals, Inc., priority 1995, dated 1997)
